Laboratory results reported in patent US11359200B2, “Cancer treatment by MALAT1 inhibition” (THE CLEVELAND CLINIC FOUNDATION, priority 2017, dated 2022).
Values belong to the compound of their own block, whether it stands above or below them. d = 2'-deoxy (DNA); m = 2'-O-methyl

Experiments:
MALAT1 = MALAT1 knock-down in MM cells by qRT-PCR; type: cell-based, Human; details: H929, MM.1S and RPMI8226 cells, 48 h after transfection
Experimental: (§1) For anti-MALAT1 transfection and ABT-888 (Santa Cruz Biotechnology Inc) or bortezomib (MilliporeSigma) treatment, MM cells were seeded on 12-well plates at a concentration of 5×10^5 cells/mL. The cells were transfected using Lipofectamine 2000 (Thermo Fisher Scientific) with 1 nM control or anti-MALAT1 oligos for 24 hours and then treated with a gradient concentration of ABT-888 or bortezomib for another 24 hours. Cells were subjected to proliferation and apoptosis assays, qRT-PCR, and immunoblotting.
Quantitative RT-PCR (qRT-PCR) analysis was used to determine the relative expression level of MALAT1. Total RNA was extracted from cells or tissues using Trizol Reagent (Thermo Fisher Scientific) according to the manufacturer's instructions. After Turbo DNase (Thermo Fisher Scientific) treatment, 500 ng total RNA was subjected to reverse transcription using the RevertAid first-stand cDNA synthesis kit (Thermo Fisher Scientific). Quantitative PCR using SYBR Green PCR master mix (Thermo Fisher Scientific) was employed to determine MALAT1 level with PCR cycle conditions of 95° C. 10 min, 95° C. 15 s, and 60° C. 1 min, for 40 cycles. GAPDH was used as loading control.

γH2A.X = test: Immunofluorescence staining and western blot for γH2A.X after MALAT1 knock-down; type: cell-based, Human; details: H929, MM.1S and RPMI8226 cells, 48 h after transfection
Experimental: Protein was extracted from cells using RIPA buffer (Thermo Fisher Scientific) containing protease inhibitor cocktail (Roche) and phosphatase inhibitor cocktail (Thermo Fisher Scientific). Protein extracts were boiled in SDS/β-mercaptoethanol sample buffer, and 30 μg samples were loaded into each well on 4%-12% polyacrylamide gels (Thermo Fisher Scientific). The proteins were separated by electrophoresis, and the proteins in the gels were blotted onto PVDF membranes (Thermo Fisher Scientific) by electrophoretic transfer. […] The specific protein—antibody complex was detected with horseradish peroxidase-conjugated rabbit anti-mouse IgG. […]

PARP1 = biological target: T1, PARP1 (Homo sapiens, UniProt P09874); test: Immunoblotting after anti-MALAT1 and ABT-888 treatment; type: cell-based
T1 construct: Protein was extracted from cells using RIPA buffer; endogenous in cells; host or cells: H929, MM.1S (human multiple myeloma cell lines, ATCC)
Experimental: (§2) Cells were subjected to proliferation and apoptosis assays, qRT-PCR, and immunoblotting.
(§3) Protein was extracted from cells using RIPA buffer (Thermo Fisher Scientific) containing protease inhibitor cocktail (Roche) and phosphatase inhibitor cocktail (Thermo Fisher Scientific). Protein extracts were boiled in SDS/β-mercaptoethanol sample buffer, and 30 μg samples were loaded into each well on 4%-12% polyacrylamide gels (Thermo Fisher Scientific). The proteins were separated by electrophoresis, and the proteins in the gels were blotted onto PVDF membranes (Thermo Fisher Scientific) by electrophoretic transfer. […] The specific protein—antibody complex was detected with horseradish peroxidase-conjugated rabbit anti-mouse IgG. Detection by chemiluminescence reaction was carried using the SuperSignal West Femto Maximum Sensitivity Substrate kit (Thermo Fisher Scientific). β-actin was used as a loading control.

[1] = test system: H929, MM.1S and RPMI8226 cells; test: MM cell apoptosis assay (annexin V/PI flow cytometry); type: cell-based, Human; details: high-/low-dose bortezomib treatment
Experimental: as §1
After transfection of cells with anti-MALAT1 #1 or #2 and control, apoptosis was evaluated by assaying for annexin V. Cells were stained with APC Annexin V Apoptosis Detection Kit with PI (BioLegend), according to the manufacturer's instructions. Stained cells were analyzed using flow cytometry, and data were analyzed using Flowjo software (Ashland).

BRCA1 and BRCA2 = test: Immunoblotting of BRCA1 and BRCA2 after bortezomib treatment; type: cell-based, Human; details: H929, MM.1S and RPMI8226, high-dose bortezomib
Experimental: as §2, §3

H929 cells = test: Cell viability assay, bortezomib with or without MALAT1 knockdown; type: cell-based; details: Homo sapiens
Experimental: as §1
(§4) MM cell lines (MM.1S, H929 and RPMI8226) and drug resistant MM cell lines (RPMI8226/LR5, RPMI8226/DOX40 and RPMI8226/V10R) were treated with anti-MALAT1 oligos for 24 hours. 2×10^4 cells/well were seeded in a 96-well plate with 100 μL medium containing gradient concentration of bortezomib, melphalan or doxorubicin per well. After 72 hours culture, cells were subjected to cell viability assay using CellTilter 96® Aqueous One Solution Cell Proliferation Assay (Promega Corporation), according to the manufacturer's instructions. The half maximal inhibitory concentration (IC50) was calculated by Graphpad Prism V5.0.

MM.1S cells = test: as above; type: cell-based; details: Homo sapiens, MM1.S
Experimental: as §1, §4

RPMI8226 cells = test: as above; type: cell-based; details: Homo sapiens, RPMI-8226, third cell line (RPMI8226, FIG. 6C)
Experimental: as §1, §4

RPMI8226/V10R cells = test: Cell viability assay, bortezomib-resistant cells; type: cell-based; details: Homo sapiens, RPMI-8226, 72 h
Experimental: (§5) For the drug resistant cells, RPMI8226/DOX40, RPMI8226/LR5 and RPMI8226/V10R cells were transfected with 1 nM control or anti-MALAT1 oligos separately for 24 hours and treated with a gradient concentration of doxorubicin for RPMI8226/DOX40, or melphalan for RPMI8226/LR5, or bortezomib for RPMI8226/V10R for 72 hours. Cell were subjected to qRT-PCR, proliferation and apoptosis assays.
as §4

RPMI8226/DOX40 cells = test: Cell viability assay, doxorubicin-resistant cells; type: cell-based; details: Homo sapiens, RPMI-8226, 72 h
Experimental: as §5, §4

RPMI8226/LR5 cells = test: Cell viability assay, melphalan-resistant cells; type: cell-based; details: Homo sapiens, RPMI-8226, 72 h
Experimental: as §5, §4

[2] = transfected with 1 nM anti-MALAT1, 72 hours

T1 sequence (P09874 whole entry): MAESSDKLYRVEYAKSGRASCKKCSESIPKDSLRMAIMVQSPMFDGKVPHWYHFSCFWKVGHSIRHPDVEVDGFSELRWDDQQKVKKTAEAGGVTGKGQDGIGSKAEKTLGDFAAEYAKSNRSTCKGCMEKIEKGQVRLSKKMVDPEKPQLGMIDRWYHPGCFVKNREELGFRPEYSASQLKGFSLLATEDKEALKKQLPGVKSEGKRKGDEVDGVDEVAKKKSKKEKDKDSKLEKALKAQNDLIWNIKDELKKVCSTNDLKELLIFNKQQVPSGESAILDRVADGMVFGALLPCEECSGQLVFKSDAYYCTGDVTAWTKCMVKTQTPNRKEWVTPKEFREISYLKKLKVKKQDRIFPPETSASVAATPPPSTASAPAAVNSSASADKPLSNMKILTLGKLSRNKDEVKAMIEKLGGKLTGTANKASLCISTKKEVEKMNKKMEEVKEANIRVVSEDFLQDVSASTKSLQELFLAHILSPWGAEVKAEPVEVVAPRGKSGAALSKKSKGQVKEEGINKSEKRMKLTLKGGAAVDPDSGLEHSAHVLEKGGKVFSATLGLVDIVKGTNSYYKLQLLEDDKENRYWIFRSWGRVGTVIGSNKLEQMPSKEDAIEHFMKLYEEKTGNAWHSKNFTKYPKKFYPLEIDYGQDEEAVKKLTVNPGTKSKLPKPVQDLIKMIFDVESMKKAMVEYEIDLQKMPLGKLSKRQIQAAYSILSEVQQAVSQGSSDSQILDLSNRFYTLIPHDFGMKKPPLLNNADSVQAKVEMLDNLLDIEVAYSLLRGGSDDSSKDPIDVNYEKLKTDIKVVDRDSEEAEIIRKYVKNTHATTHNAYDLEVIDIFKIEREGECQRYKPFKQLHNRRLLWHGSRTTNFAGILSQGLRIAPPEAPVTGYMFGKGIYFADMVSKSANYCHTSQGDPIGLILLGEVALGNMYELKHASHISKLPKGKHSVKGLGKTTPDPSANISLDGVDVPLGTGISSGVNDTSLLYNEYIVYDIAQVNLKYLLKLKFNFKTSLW

Compound: 5′-mC*mG*mA*mA*mA*C*A*T*T*G*G*C*A*C*A*mC*mA*mG*mC*mA-3′ (antisense CGAAACATTGGCACACAGCA; sugars from the 5' end m5 d10 m5, all phosphorothioate, methylation of C not given here) [anti-MALAT1-1]
MALAT1 level (qRT-PCR) (MALAT1): efficiently knocked-down
frequency of DNA break (γH2A.X) (γH2A.X): increased substantially

Compound: 5′-mG*mG*mC*mA*mU*A*T*G*C*A*G*A*T*A*A*mU*mG*mU*mU*mC-3′ (antisense GGCAUATGCAGATAAUGUUC; sugars from the 5' end m5 d10 m5, all phosphorothioate, methylation of C not given here) [anti-MALAT1-2]
MALAT1 level (qRT-PCR) (MALAT1): efficiently knocked-down
frequency of DNA break (γH2A.X) (γH2A.X): increased substantially

PAR signal (PARP1; H929 and MM.1S, treated synchronously with anti-MALAT1 and ABT888): dose-dependent decreased
level of γH2A.X, cleaved PARP1, and cleaved caspase-3 (PARP1; combination treatment anti-MALAT1 and ABT888): significantly increased
Compound: C[C@]1(c2nc3c(C(N)=O)cccc3[nH]2)CCCN1 [ABT888]

IC50 (H929 cells; NCI-H929, H929 cells transfected with 1 nM anti-MALAT1): 0.0036 µM
IC50 (H929 cells; NCI-H929, H929 cells, control (before MALAT1 knockdown)): 0.0049 µM
IC50 (MM.1S cells; MM.1S cells transfected with 1 nM anti-MALAT1): 0.0066 µM
IC50 (MM.1S cells; MM.1S cells, control (before MALAT1 knockdown)): 0.0089 µM
IC50 (RPMI8226 cells; control): 0.0101 µM
IC50 (RPMI8226 cells; transfected with 1 nM anti-MALAT1): 0.0082 µM
IC50 (RPMI8226/V10R cells; control oligos, 72 hours): 0.194 µM
IC50 (RPMI8226/V10R cells; [2]): 0.144 µM
Compound: CC(C)C[C@H](NC(=O)[C@H](Cc1ccccc1)NC(=O)c1cnccn1)B(O)O [bortezomib]
γH2A.X signals and apoptosis ratio [1]: increased
expression of BRCA1 and BRCA2 (BRCA1 and BRCA2): dramatically down-regulated

IC50 (RPMI8226/DOX40 cells; control oligos, 72 hours): 2.46 µM
IC50 (RPMI8226/DOX40 cells; [2]): 1.48 µM
Compound: COc1cccc2c1C(=O)c1c(O)c3c(c(O)c1C2=O)C[C@@](O)(C(=O)CO)C[C@@H]3O[C@H]1C[C@H](N)[C@H](O)[C@H](C)O1 [doxorubicin]

Compound: N[C@@H](Cc1ccc(N(CCCl)CCCl)cc1)C(=O)O [melphalan]
IC50 (RPMI8226/LR5 cells; control oligos, 72 hours): 53.4 µM
IC50 (RPMI8226/LR5 cells; [2]): 34 µM
